The test system of one assay is tankyrase 1/2. The assay can be described thus: Cellular inhibition of Tankyrase: increase of Axin2 level in DLD1 cells (Luminex). Type of assay: cell-based. To be noted: 24 hours, read-out: EC50 tankyrase 1/2 (cell assay). As for the experimental part:
Measurement of Cellular Inhibition of Tankyrase
Since Tankyrases have been described to modulate cellular level of Axin2 (Huang et al., 2009; Nature) the increase of Axin2 level is used as read-out for determination of cellular inhibition of Tankyrases in a Luminex based assay.
Cells of the colon carcinoma cell line DLD1 are plated in 96 well plates with 1.5×10^4 cells per well. Next day, cells are treated with a serial dilution of test compound in seven steps as triplicates with a final DMSO concentration of 0.3%. After 24 hours, cells are lysed in lysis buffer (20 mM Tris/HCl pH 8.0, 150 mM NaCl, 1% NP40, 10% Glycerol) and lysates are cleared by centrifugation through a 96 well filter plate (0.65 μm). Axin2 protein is isolated from cell lysates by incubation with a monoclonal anti-Axin2 antibody (R&D Systems #MAB6078) that is bound to fluorescent carboxybeads. Then, bound Axin2 is specifically detected with a polyclonal anti-Axin2 antibody (Cell Signaling #2151) and an appropriate PE-fluorescent secondary antibody. The amount of isolated Axin2 protein is determined in a Luminex^200 machine (Luminex Corporation) according to the manufacturer's instruction by counting 100 events per well. Inhibition of Tankyrase by test compounds results in higher levels of Axin2 which directly correlates with an increase of detectable fluorescence. As controls cells are treated with solvent alone (neutral control) and with a Tankyrase reference inhibitor IWR-2 (3E-06 M) which refers as control for maximum increase of Axin2. For analysis, the obtained data are normalized against the untreated solvent control and fitted for determination of the EC50 values using the Assay Explorer software (Accelrys).

Assay [1] deals with T1, GST-tagged Tankyrase-1 (1023-1327 aa) (Homo sapiens, UniProt O95271).
T1 construct: GST-tagged Tankyrase-1 (1023-1327 aa)
Put plainly: Tankyrase 1 autoparsylation assay (HTRF enzyme assay). Type of assay: biochemical. As for the experimental part:
(§1) Biochemical Activity Testing of Tankyrase 1 and 2: Autoparsylation Assay
(§2) The autoparsylation assay is run in two steps: the enzymatic reaction in which GST-tagged Tankyrase-1, resp Tankyrase-2 transferred biotinylated ADP-ribose to itself from biotinylated NAD as co-substrate and the detection reaction where a time resolved FRET between cryptate labelled anti-GST bound to the GST tag of the enzyme and Xlent® labelled-streptavidin bound the biotin-parsylation residue is analysed. The autoparsylation activity was detectable directly via the increase in HTRF signal.
(§3) The autoparsylation assay is performed as 384-well HTRF® (Cisbio, Codolet, France) assay format in Greiner low volume nb 384-well microtiter plates and is used for high throughput screen. 250 nM GST-tagged Tankyrase-1 (1023-1327 aa), respectively about 250 nM GST-tagged Tankyrase-2 (873-1166 aa) and 5 μM bio-NAD (Biolog, Life science Inst., Bremen, Germany) as co-substrate are incubated in a total volume of 5 μl (50 mM HEPES, 4 mM Mg-chloride, 0.05% Pluronic F-68, 1.4 mM DTT, 0.5% DMSO, pH 7.7) in the absence or presence of the test compound (10 dilution concentrations) for 90 min at 30° C. The reaction is stopped by the addition of 1 μl 50 mM EDTA solution. 2 μl of the detection solution (1.6 μM SA-Xlent® (Cisbio, Codolet, France), 7.4 nM Anti-GST-K® (Eu-labelled anti-GST, Cisbio, Codolet, France) in 50 mM HEPES, 800 mM KF, 0.1% BSA, 20 mM EDTA, 0.1% CHAPS, pH 7.0) are added. After 1 h incubation at room temperature the HTRF is measured with an Envision multimode reader (Perkin Elmer LAS Germany GmbH) at excitation wavelength 340 nm (laser mode) and emission wavelengths 615 nm and 665 nm. The ratio of the emission signals is determined. The full value used is the inhibitor-free reaction. The pharmacological zero value used is XAV-939 (Tocris) in a final concentration of 5 μM. The inhibitory values (IC50) are determined using either the program Symyx Assay Explorer® or Condosseo® from GeneData.

For assay [2], the target named is T2, GST-tagged Tankyrase-2 (873-1166 aa) (Homo sapiens, UniProt Q9H2K2).
T2 construct: GST-tagged Tankyrase-2 (873-1166 aa)
The assay can be described thus: Tankyrase 2 autoparsylation assay (HTRF enzyme assay). The format is biochemical. Here is the method:
as §1, §2, §3

T1 sequence (O95271 1023-1327): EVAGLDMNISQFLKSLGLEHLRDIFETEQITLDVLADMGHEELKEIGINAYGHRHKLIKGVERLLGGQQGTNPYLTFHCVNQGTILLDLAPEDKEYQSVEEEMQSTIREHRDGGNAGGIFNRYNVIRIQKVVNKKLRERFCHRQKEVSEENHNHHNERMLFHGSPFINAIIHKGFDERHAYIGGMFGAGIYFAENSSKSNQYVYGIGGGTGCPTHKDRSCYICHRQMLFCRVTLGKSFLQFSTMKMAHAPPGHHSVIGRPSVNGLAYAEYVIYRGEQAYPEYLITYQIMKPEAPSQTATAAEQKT
T2 sequence (Q9H2K2 873-1166): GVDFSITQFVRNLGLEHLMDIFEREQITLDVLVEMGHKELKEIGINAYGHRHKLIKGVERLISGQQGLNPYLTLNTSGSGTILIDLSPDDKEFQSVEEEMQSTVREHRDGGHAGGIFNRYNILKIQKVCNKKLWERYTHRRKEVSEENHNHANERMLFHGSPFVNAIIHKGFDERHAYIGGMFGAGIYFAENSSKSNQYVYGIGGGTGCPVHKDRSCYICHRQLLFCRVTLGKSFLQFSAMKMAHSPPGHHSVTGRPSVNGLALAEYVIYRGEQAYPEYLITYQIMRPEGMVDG

As for `CC(C)(O)c1ccc(-c2cn3cc(C#N)cc3c(=O)[nH]2)cc1` [Compound A62, 3-[4-(1-hydroxy-1-methyl-ethyl)-phenyl]-1-oxo-1,2-dihydro-pyrrolo[1,2-a]pyrazine-7-carbonitrile], in the assay with tankyrase 1/2, the EC50 was 3000 to 50000 nM.
`O=c1[nH]c(-c2ccc(N3CCCC3)cc2)cn2nc(CO)cc12` [Compound A19, 2-hydroxymethyl-6-(4-pyrrolidin-1-yl-phenyl)-5H-pyrazolo[1,5-a]pyrazin-4-one]: the 50% inhibitory concentration (IC50) in assay [1] was < 300 nM; in assay [2], 300 to 3000 nM. Besides, the EC50 with tankyrase 1/2 fell in the range of 300 to 3000 nM.
With `O=c1[nH]c(-c2ccc(OC(F)(F)F)cc2)cn2nc(CCl)cc12` [Compound A33, 2-chloromethyl-6-(4-trifluoromethoxy-phenyl)-5H-pyrazolo[1,5-a]pyrazin-4-one], in assay [1], the 50% inhibitory concentration (IC50) was in the range of 300 to 3000 nM.
For `O=c1[nH]c(-c2ccc(-c3cnn(CCOC4CCCCO4)c3)cc2)cn2cccc12` (stereo not drawn) [Compound A31, 3-(4-{1-[2-(tetrahydro-pyran-2-yloxy)-ethyl]-1H-pyrazol-4-yl}-phenyl)-2H-pyrrolo[1,2-a]pyrazin-1-one], the figures for the IC50 in assay [1] and in assay [2] were < 300 nM and 300 to 3000 nM, respectively.
In the same order, the values of `Cn1cc(-c2cn3cccc3c(=O)[nH]2)cn1` [Compound A14, 3-(1-methyl-1H-pyrazol-4-yl)-2H-pyrrolo[1,2-a]pyrazin-1-one] are 300 to 3000 nM and 300 to 3000 nM.
Turning to `O=c1[nH]c(-c2ccc(OC(F)(F)F)cc2)cn2nccc12` [Compound A16, 6-(4-trifluoromethoxy-phenyl)-5H-pyrazolo[1,5-a]pyrazin-4-one], the IC50 in assay [1] fell in the range of 300 to 3000 nM; in assay [2], 3000 to 50000 nM.
`O=c1[nH]c(-c2ccc(C3(O)CCNCC3)cc2)cn2cccc12` [Compound A99]: the IC50 in assay [1] and in assay [2] was 300 to 3000 nM throughout. Besides, the EC50 in the assay with tankyrase 1/2 fell in the range of 3000 to 50000 nM.
On to `COCCn1cc(-c2ccc(-c3cn4cccc4c(=O)[nH]3)cc2)cn1` [Compound A26, 3-{4-[1-(2-methoxy-ethyl)-1H-pyrazol-4-yl]-phenyl}-2H-pyrrolo[1,2-a]pyrazin-1-one], for which the IC50 in assay [1] and in assay [2] was < 300 nM throughout. Also, the EC50 in the assay with tankyrase 1/2 fell in the range of 300 to 3000 nM.
For the molecule `CC1(C)CCC(C)(C)c2cc(-c3cn4cccc4c(=O)[nH]3)ccc21` [Compound A5, 3-(5,5,8,8-tetramethyl-5,6,7,8-tetrahydro-naphthalen-2-yl)-2H-pyrrolo[1,2-a]pyrazin-1-one], the IC50 in assay [1] was in the range of 3000 to 50000 nM.
For `O=c1[nH]c(-c2ccc(Br)cc2)cn2cc(F)cc12` [Compound A58, 3-(4-bromo-phenyl)-7-fluoro-2H-pyrrolo[1,2-a]pyrazin-1-one], the IC50 in assay [1] and in assay [2] was < 300 nM throughout.
For the molecule `O=c1[nH]c(-c2ccc(-c3cnn(CCN4CCCC4)c3)cc2)cn2cccc12` [Compound A27, 3-{4-[1-(2-pyrrolidin-1-yl-ethyl)-1H-pyrazol-4-yl]-phenyl}-2H-pyrrolo[1,2-a]pyrazin-1-one], the IC50 in assay [1] and in assay [2] was < 300 nM throughout. Also, the EC50 in the assay on tankyrase 1/2 lay within 300 to 3000 nM.
Take `O=c1[nH]c(-c2ccc(N3CCCC3)cc2)cn2nccc12` [Compound A17, 6-(4-pyrrolidin-1-yl-phenyl)-5H-pyrazolo[1,5-a]pyrazin-4-one]: the 50% inhibitory concentration (IC50) in assay [1] and in assay [2] was < 300 nM each time. In the assay on tankyrase 1/2, the EC50 lay within 300 to 3000 nM.
For `Cc1nc(-c2ccc(-c3cn4nc(CO)cc4c(=O)[nH]3)cc2)no1` [Compound A21, 2-hydroxymethyl-6-[4-(5-methyl-[1,2,4]oxadiazol-3-yl)-phenyl]-5H-pyrazolo[1,5-a]pyrazin-4-one], the 50% inhibitory concentration (IC50) is 300 to 3000 nM in assay [1] and 3000 to 50000 nM in assay [2].
Consider `O=c1[nH]c(-c2ccccc2)cn2cccc12` [Compound A2, 3-phenyl-2H-pyrrolo[1,2-a]pyrazin-1-one], for which the IC50 in assay [1] and in assay [2] was 300 to 3000 nM throughout.
`O=c1[nH]c(-c2ccc(Br)cc2)cn2cccc12` [Compound A24, 3-(4-bromo-phenyl)-2H-pyrrolo[1,2-a]pyrazin-1-one]: the concentration for half-maximal inhibition (IC50) in assay [1] and in assay [2] was < 300 nM throughout.
In the case of `Cc1cc2c(=O)[nH]c(-c3ccc(C(C)(C)C)cc3)cn2n1` [Compound A30, 6-(4-tert-butyl-phenyl)-2-methyl-5H-pyrazolo[1,5-a]pyrazin-4-one], the values for the half-inhibitory concentration (IC50) in assay [1] and in assay [2] were < 300 nM and 300 to 3000 nM, respectively. For the same molecule, the EC50 with tankyrase 1/2 was < 300 nM.
As to `CC(C)(C)c1ccc(-c2cn3nc(CF)cc3c(=O)[nH]2)cc1` [Compound A64, 6-(4-tert-butyl-phenyl)-2-fluoromethyl-5H-pyrazolo[1,5-a]pyrazin-4-one], the IC50 in assay [1] was < 300 nM; in assay [2], 300 to 3000 nM. In the assay on tankyrase 1/2, the EC50 fell in the range of 300 to 3000 nM.
Regarding `CC(C)(C)c1ccc(-c2cn3nc(C(F)F)cc3c(=O)[nH]2)cc1` [Compound A66, 6-(4-tert-butyl-phenyl)-2-difluoromethyl-5H-pyrazolo[1,5-a]pyrazin-4-one], the IC50 in assay [1] was < 300 nM; in assay [2], 300 to 3000 nM. The EC50 in the assay on tankyrase 1/2 fell in the range of 300 to 3000 nM.
In the case of `C=C(CCCO)c1ccc(-c2cn3cc(F)cc3c(=O)[nH]2)cc1` (single isomer, unassigned) [Compound A74, 7-fluoro-3-[4-(4-hydroxy-1-methylene-butyl)-phenyl]-2H-pyrrolo[1,2-a]pyrazin-1-one], the IC50 in assay [1] is < 300 nM; in assay [2], 300 to 3000 nM. Also, in the assay with tankyrase 1/2, the EC50 was 300 to 3000 nM.
As for `CN1CCC(c2ccc(-c3cn4cc(Cl)cc4c(=O)[nH]3)cc2)CC1` [Compound A82, 7-chloro-3-[4-(1-methyl-piperidin-4-yl)-phenyl]-2H-pyrrolo[1,2-a]pyrazin-1-one], the concentration for half-maximal inhibition (IC50) in assay [1] is < 300 nM; in assay [2], 300 to 3000 nM. The EC50 with tankyrase 1/2 is 300 to 3000 nM.
As to `O=c1[nH]c(-c2ccc(C3CCNCC3)cc2)cn2cc(Cl)cc12` [Compound A78, 7-Chloro-3-(4-piperidin-4-yl-phenyl)-2H-pyrrolo[1,2-a]pyrazin-1-one], the EC50 in the assay on tankyrase 1/2 is 300 to 3000 nM.
In the case of `Cc1cc2c(=O)[nH]c(-c3cnn(C(C)(C)C)c3)cn2n1` [Compound A52, 2-methyl-6-(1-tert-butyl-1H-pyrazol-4-yl)-5H-pyrazolo[1,5-a]pyrazin-4-one], the IC50 in assay [1] lay within 300 to 3000 nM; in assay [2], 3000 to 50000 nM.
With `O=c1[nH]c(-c2ccc(Br)cc2)cn2nc(CBr)cc12` [Compound A36, 2-bromomethyl-6-(4-bromo-phenyl)-5H-pyrazolo[1,5-a]pyrazin-4-one], the results for the IC50 in assay [1] and in assay [2] were 300 to 3000 nM and 3000 to 50000 nM, respectively.
Take `CC(C)Oc1ccc(-c2cn3nc(CO)cc3c(=O)[nH]2)cc1` [Compound A20, 2-hydroxymethyl-6-(4-isopropoxy-phenyl)-5H-pyrazolo[1,5-a]pyrazin-4-one]: the 50% inhibitory concentration (IC50) in assay [1] was in the range of 300 to 3000 nM; in assay [2] it was 3000 to 50000 nM.
In assay [1], `O=c1[nH]c(-c2ccc(Br)cc2)cn2nc(C(F)(F)F)cc12` [Compound A67, 6-(4-bromo-phenyl)-2-trifluoromethyl-5H-pyrazolo[1,5-a]pyrazin-4-one] gave an IC50 of 300 to 3000 nM.
For `CC(C)n1cc(-c2cn3nc(CO)cc3c(=O)[nH]2)cn1` [Compound A22, 2-hydroxymethyl-6-(1-isopropyl-1H-pyrazol-4-yl)-5H-pyrazolo[1,5-a]pyrazin-4-one], the IC50 in assay [1] was in the range of 3000 to 50000 nM.
Take `CC(C)(C)c1ccc(-c2cn3nc(C(F)(F)F)cc3c(=O)[nH]2)cc1` [Compound A55, 6-(4-tert-butyl-phenyl)-2-trifluoromethyl-5H-pyrazolo[1,5-a]pyrazin-4-one]: the IC50 in assay [1] was < 300 nM.

The record behind these values is patent US9120805B2, “Substituted pyrrolo[1,2-A]pyrazin-1-ones and pyrazolo[1,5-A]pyrazin-4-ones as inhibitors of tankyrase and poly(ADP-ribose)polymerase activity” (Merck Patent GmbH, priority 2012, dated 2015).
